As usually defined, the Ki is a measure of affinity in units of concentration, obtained from inhibition or displacement.

For one assay, the target named is T1, rat mGluR1 (Rattus norvegicus, UniProt P23385).
T1 construct: rat cerebellar membrane preparation was used; from tissue; host or cells: rat cerebellum (membrane preparation)
The experiment in a line: MGluR1 receptor binding test ([3H]R214127 displacement, rat cerebellar membrane preparation). The settings on record: rat mGluR1, [3H]R214127 3 nM; read-out: mGlu1 Ki. How it is done: MGluR1 receptor binding tests were performed according to modified method of Lavreysen et al. (Mol. Pharm., 2003, 63, 1082). Based on the high homology between the human and rat mGluR1 receptors, rat cerebellar membrane preparation was used to determine the binding characteristics of reference compounds and novel compounds to the rat mGluR1. [3H]R214127 (3 nM) was used as radioligand and the nonspecific binding was determined in the presence of 1 μM of R214127.
IC-50 values were determined from displacement curves by nonlinear regression analysis and were converted to Ki values using the equation method of Cheng and Prusoff (Biochem. Pharmacol., 1973, 22, 3099).

The target of the next assay is T2, rat mGluR5 (Rattus norvegicus, UniProt P31424).
T2 construct: Rat cerebro-cortical membrane preparation was used; from tissue; host or cells: rat cerebral cortex (membrane preparation)
T2 sequence (P31424 21-1203): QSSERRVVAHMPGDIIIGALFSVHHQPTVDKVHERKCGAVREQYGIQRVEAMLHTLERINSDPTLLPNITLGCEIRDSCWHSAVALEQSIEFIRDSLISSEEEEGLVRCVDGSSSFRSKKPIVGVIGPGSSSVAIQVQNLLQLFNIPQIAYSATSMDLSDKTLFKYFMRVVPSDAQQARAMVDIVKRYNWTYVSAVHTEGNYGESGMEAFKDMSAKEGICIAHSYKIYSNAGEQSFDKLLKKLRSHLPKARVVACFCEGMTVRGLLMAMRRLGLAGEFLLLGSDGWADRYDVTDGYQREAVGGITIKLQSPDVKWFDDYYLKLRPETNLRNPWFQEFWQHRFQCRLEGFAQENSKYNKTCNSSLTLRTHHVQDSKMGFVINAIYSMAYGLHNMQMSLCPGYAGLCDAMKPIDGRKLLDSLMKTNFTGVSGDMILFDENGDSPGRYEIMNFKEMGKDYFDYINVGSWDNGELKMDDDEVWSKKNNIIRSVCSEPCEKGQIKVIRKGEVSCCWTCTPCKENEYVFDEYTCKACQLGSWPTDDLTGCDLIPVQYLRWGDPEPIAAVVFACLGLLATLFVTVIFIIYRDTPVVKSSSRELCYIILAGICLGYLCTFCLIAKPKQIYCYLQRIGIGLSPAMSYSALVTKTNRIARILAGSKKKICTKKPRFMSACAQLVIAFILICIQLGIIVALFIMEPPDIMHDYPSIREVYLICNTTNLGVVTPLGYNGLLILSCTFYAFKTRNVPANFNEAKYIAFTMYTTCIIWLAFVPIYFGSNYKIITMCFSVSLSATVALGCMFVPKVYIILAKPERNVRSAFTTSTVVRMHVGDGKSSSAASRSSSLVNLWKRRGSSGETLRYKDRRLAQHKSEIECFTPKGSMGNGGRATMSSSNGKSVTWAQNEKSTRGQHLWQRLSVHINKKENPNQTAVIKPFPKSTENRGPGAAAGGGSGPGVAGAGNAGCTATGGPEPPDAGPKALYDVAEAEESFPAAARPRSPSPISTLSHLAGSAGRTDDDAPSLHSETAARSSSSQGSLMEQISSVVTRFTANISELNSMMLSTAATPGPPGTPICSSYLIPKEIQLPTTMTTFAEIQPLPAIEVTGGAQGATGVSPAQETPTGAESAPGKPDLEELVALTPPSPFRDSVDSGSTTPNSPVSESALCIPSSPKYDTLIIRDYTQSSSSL
The experiment in a line: MGluR5 receptor binding test ([3H]-M-MPEP displacement, rat cerebro-cortical membrane preparation). The settings on record: rat mGluR5, [3H]-M-MPEP 2 nM; read-out: mGlu5 Ki. As to the method:
Rat cerebro-cortical membrane preparation was used to determine the binding characteristics of reference compounds and novel compounds to the rat mGluR5. The A18 cell line expressing hmGluR5a (purchased from Euroscreen) was used to determine binding characteristics of the chemical compounds to the human mGluR5a receptor. [3H]-M-MPEP (2 nM) was used as radioligand. The nonspecific binding was determined in the presence of 10 μM M-MPEP.

T1 sequence (P23385 19-1199): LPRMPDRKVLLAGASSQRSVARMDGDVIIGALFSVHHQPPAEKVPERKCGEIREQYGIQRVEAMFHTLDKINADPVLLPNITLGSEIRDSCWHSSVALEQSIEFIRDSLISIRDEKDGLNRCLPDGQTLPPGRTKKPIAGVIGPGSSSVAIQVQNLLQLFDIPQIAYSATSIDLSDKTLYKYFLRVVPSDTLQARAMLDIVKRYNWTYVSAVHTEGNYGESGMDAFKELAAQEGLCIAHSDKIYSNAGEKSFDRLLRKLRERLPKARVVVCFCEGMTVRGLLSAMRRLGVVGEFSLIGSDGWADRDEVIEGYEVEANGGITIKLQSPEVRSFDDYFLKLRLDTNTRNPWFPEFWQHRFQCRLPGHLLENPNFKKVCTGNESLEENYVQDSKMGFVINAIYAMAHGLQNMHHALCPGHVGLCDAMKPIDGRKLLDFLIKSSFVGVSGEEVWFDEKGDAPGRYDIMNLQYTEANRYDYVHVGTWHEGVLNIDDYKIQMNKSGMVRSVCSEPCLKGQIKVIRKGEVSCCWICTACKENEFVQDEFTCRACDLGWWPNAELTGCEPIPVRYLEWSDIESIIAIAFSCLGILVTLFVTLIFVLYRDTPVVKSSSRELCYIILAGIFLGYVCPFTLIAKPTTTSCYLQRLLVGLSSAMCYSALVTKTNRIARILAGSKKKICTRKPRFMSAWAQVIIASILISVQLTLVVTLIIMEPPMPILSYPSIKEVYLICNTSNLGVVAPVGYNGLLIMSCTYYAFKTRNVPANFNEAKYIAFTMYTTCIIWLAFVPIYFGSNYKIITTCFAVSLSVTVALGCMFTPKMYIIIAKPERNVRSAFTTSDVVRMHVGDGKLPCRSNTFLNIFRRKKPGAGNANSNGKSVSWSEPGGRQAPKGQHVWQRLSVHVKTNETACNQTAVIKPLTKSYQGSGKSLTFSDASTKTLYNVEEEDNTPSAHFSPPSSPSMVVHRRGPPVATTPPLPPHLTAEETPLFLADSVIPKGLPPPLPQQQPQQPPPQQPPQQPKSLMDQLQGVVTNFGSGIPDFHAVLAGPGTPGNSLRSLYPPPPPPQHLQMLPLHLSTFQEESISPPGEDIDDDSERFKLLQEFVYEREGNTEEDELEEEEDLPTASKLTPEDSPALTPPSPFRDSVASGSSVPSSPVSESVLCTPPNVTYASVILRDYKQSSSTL

For `O=S(=O)(c1cc(F)cc(F)c1)c1cnc2c(F)cccc2c1-c1cccc(F)c1` [Compound 51], the Ki on rat mGluR1 is above 500 nM; on rat mGluR5, below 200 nM.

`COc1ccc(-c2c(S(=O)(=O)c3ccc(F)cc3)cnc3c(F)cccc23)cc1` [Compound 52]: the values for the Ki on rat mGluR1 and at rat mGluR5 were above 500 nM and below 200 nM, respectively.

`COc1ccc(S(=O)(=O)c2cnc3c(F)cccc3c2-c2cccc(Cl)c2)cc1` [Compound 53, 4-(3-chloro-phenyl)-8-fluoro-3-(4-methoxy-benzenesulfonyl)-quinoline]: the inhibition constant Ki at rat mGluR1 was above 500 nM; on rat mGluR5 it was below 200 nM.

For the molecule `COc1ccc(S(=O)(=O)c2cnc3c(F)cccc3c2-c2ccc(Cl)cc2)cc1` [Compound 54], the Ki at rat mGluR1 and on rat mGluR5 was below 200 nM each time.

`COc1ccc(S(=O)(=O)c2cnc3c(F)cccc3c2-c2cccc(F)c2)cc1` [Compound 55]: the Ki was above 500 nM at rat mGluR1 and below 200 nM on rat mGluR5.

In the case of `COc1ccc(-c2c(S(=O)(=O)c3ccc(OC)cc3)cnc3c(F)cccc23)cc1` [Compound 56], the results for the Ki at rat mGluR1 and on rat mGluR5 were above 500 nM and below 200 nM, respectively.

Take `COc1ccc(S(=O)(=O)c2cnc3c(F)cccc3c2-c2cccc(OC)c2)cc1` [Compound 57]: the figures for the Ki at rat mGluR1 and at rat mGluR5 were above 500 nM and below 200 nM, respectively.

Consider `O=S(=O)(c1cccc(F)c1)c1cnc2c(F)cccc2c1-c1cccc(Cl)c1` [Compound 58], for which the Ki at rat mGluR1 is 200 to 500 nM; on rat mGluR5 it was below 200 nM.

For `O=S(=O)(c1cccc(F)c1)c1cnc2c(F)cccc2c1-c1ccc(Cl)cc1` [Compound 59], the values for the Ki on rat mGluR1 and on rat mGluR5 were 200 to 500 nM and below 200 nM, respectively.

With `O=S(=O)(c1cccc(F)c1)c1cnc2c(F)cccc2c1-c1cccc(F)c1` [Compound 60], the Ki is 200 to 500 nM at rat mGluR1 and below 200 nM on rat mGluR5.

For the molecule `COc1ccc(-c2c(S(=O)(=O)c3cccc(F)c3)cnc3c(F)cccc23)cc1` [Compound 61], the figures for the inhibitory constant (Ki) at rat mGluR1 and on rat mGluR5 were above 500 nM and below 200 nM, respectively.

Take `COc1cccc(-c2c(S(=O)(=O)c3cccc(F)c3)cnc3c(F)cccc23)c1` [Compound 62]: the figures for the inhibition constant (Ki) on rat mGluR1 and at rat mGluR5 were above 500 nM and below 200 nM, respectively.

Turning to `O=S(=O)(c1cccc(F)c1)c1cnc2c(F)cccc2c1-c1ccc(F)cc1` [Compound 63], the Ki at rat mGluR1 was 200 to 500 nM; on rat mGluR5, below 200 nM.

On to `O=S(=O)(c1cc(F)cc(F)c1)c1cnc2ccc(F)cc2c1-c1cccc(Cl)c1` [Compound 64], for which the Ki at rat mGluR1 and on rat mGluR5 was above 500 nM throughout.

`O=S(=O)(c1cc(F)cc(F)c1)c1cnc2ccc(F)cc2c1-c1cccc(F)c1` [Compound 65]: the Ki on rat mGluR1 and on rat mGluR5 was 200 to 500 nM each time.

`O=S(=O)(c1cc(F)cc(F)c1)c1cnc2ccc(F)cc2c1-c1ccc(F)cc1` [Compound 66]: the figures for the Ki at rat mGluR1 and at rat mGluR5 were above 500 nM and 200 to 500 nM, respectively.

For the molecule `N#Cc1cccc(S(=O)(=O)c2cnc3ccc(F)cc3c2-c2cccc(F)c2)c1` [Compound 67], the results for the Ki on rat mGluR1 and at rat mGluR5 were 200 to 500 nM and below 200 nM, respectively.

For the molecule `COc1cccc(-c2c(S(=O)(=O)c3cccc(C#N)c3)cnc3ccc(F)cc23)c1` [Compound 68, 3-(3-cyano-benzenesulfonyl)-6-fluoro-4-(3-methoxy-phenyl)-quinoline], the Ki at rat mGluR1 is above 500 nM; on rat mGluR5, below 200 nM.

For `N#Cc1cccc(S(=O)(=O)c2cnc3ccc(F)cc3c2-c2ccc(F)cc2)c1` [Compound 69], the inhibition constant Ki on rat mGluR1 is 200 to 500 nM; at rat mGluR5, below 200 nM.

In the case of `COc1ccc(S(=O)(=O)c2cnc3ccc(F)cc3c2-c2cccc(Cl)c2)cc1OC` [Compound 70], the Ki at rat mGluR1 and on rat mGluR5 was above 500 nM in each case.

In the case of `COc1ccc(-c2c(S(=O)(=O)c3ccc(OC)c(OC)c3)cnc3ccc(F)cc23)cc1` [Compound 71], the Ki at rat mGluR1 and on rat mGluR5 was above 500 nM throughout.

`COc1cccc(S(=O)(=O)c2cnc3ccc(F)cc3c2-c2cccc(Cl)c2)c1` [Compound 72]: the figures for the Ki at rat mGluR1 and on rat mGluR5 were above 500 nM and below 200 nM, respectively.

With `COc1cccc(S(=O)(=O)c2cnc3ccc(F)cc3c2-c2ccc(F)cc2)c1` [Compound 73], the Ki is above 500 nM on rat mGluR1 and below 200 nM on rat mGluR5.

With `COc1ccc(-c2c(S(=O)(=O)c3ccc(OC)c(Cl)c3)cnc3ccc(F)cc23)cc1` [Compound 74], the inhibitory constant (Ki) at rat mGluR1 is above 500 nM; on rat mGluR5 it was below 200 nM.

On to `COc1cccc(-c2c(S(=O)(=O)c3ccc(OC)c(Cl)c3)cnc3ccc(F)cc23)c1` [Compound 75], for which the figures for the inhibitory constant (Ki) on rat mGluR1 and on rat mGluR5 were above 500 nM and below 200 nM, respectively.

Take `O=S(=O)(c1ccc(F)cc1)c1cnc2cc(F)ccc2c1-c1ccc(Cl)cc1` [Compound 76]: the results for the Ki at rat mGluR1 and on rat mGluR5 were above 500 nM and below 200 nM, respectively.

`COc1ccc(-c2c(S(=O)(=O)c3ccc(C)c(C)c3)cnc3cc(F)ccc23)cc1` [Compound 77]: the inhibition constant (Ki) was above 500 nM on rat mGluR1 and below 200 nM on rat mGluR5.

For `COc1ccc(S(=O)(=O)c2cnc3ccc(F)cc3c2-c2ccc(Cl)cc2)cc1Cl` [Compound 78], the inhibitory constant (Ki) was above 500 nM at rat mGluR1 and below 200 nM at rat mGluR5.

In the case of `COc1ccc(S(=O)(=O)c2cnc3ccc(F)cc3c2-c2cccc(F)c2)cc1Cl` [Compound 79], the Ki on rat mGluR1 is above 500 nM; at rat mGluR5, below 200 nM.

For the molecule `O=S(=O)(c1cc(Cl)cc(Cl)c1)c1cnc2cc(F)ccc2c1-c1cccc(F)c1` [Compound 80], the inhibition constant Ki was 200 to 500 nM at rat mGluR1 and below 200 nM on rat mGluR5.

As for `COc1ccc(-c2c(S(=O)(=O)c3cc(Cl)cc(Cl)c3)cnc3cc(F)ccc23)cc1` [Compound 81], the inhibition constant (Ki) at rat mGluR1 was above 500 nM; on rat mGluR5, below 200 nM.

For `COc1cccc(-c2c(S(=O)(=O)c3cc(Cl)cc(Cl)c3)cnc3cc(F)ccc23)c1` [Compound 82], the inhibition constant Ki on rat mGluR1 is above 500 nM; on rat mGluR5 it was below 200 nM.

Take `Cc1ccc(S(=O)(=O)c2cnc3cc(F)ccc3c2-c2cccc(Cl)c2)cc1F` [Compound 84]: the inhibition constant Ki was above 500 nM on rat mGluR1 and below 200 nM at rat mGluR5.

On to `Cc1ccc(S(=O)(=O)c2cnc3cc(F)ccc3c2-c2cccc(F)c2)cc1F` [Compound 85], for which the figures for the Ki on rat mGluR1 and on rat mGluR5 were above 500 nM and below 200 nM, respectively.

`Cc1ccc(S(=O)(=O)c2cnc3cc(F)ccc3c2-c2ccc(F)cc2)cc1F` [Compound 86]: the inhibitory constant (Ki) on rat mGluR1 was above 500 nM; on rat mGluR5, below 200 nM.

`O=S(=O)(c1cc(F)cc(F)c1)c1cnc2cc(F)ccc2c1-c1cccc(Cl)c1` [Compound 87]: the inhibitory constant (Ki) is above 500 nM on rat mGluR1 and 200 to 500 nM on rat mGluR5.

For the molecule `O=S(=O)(c1cc(F)cc(F)c1)c1cnc2cc(F)ccc2c1-c1cccc(F)c1` [Compound 88], the inhibition constant (Ki) at rat mGluR1 was 200 to 500 nM; on rat mGluR5, below 200 nM.

`COc1ccc(-c2c(S(=O)(=O)c3cc(F)cc(F)c3)cnc3cc(F)ccc23)cc1` [Compound 89]: the Ki at rat mGluR1 was above 500 nM; on rat mGluR5 it was below 200 nM.

As for `COc1cccc(-c2c(S(=O)(=O)c3cc(F)cc(F)c3)cnc3cc(F)ccc23)c1` [Compound 90], the inhibitory constant (Ki) on rat mGluR1 was above 500 nM; at rat mGluR5, below 200 nM.

For the molecule `N#Cc1cccc(S(=O)(=O)c2cnc3cc(F)ccc3c2-c2cccc(Cl)c2)c1` [Compound 91], the Ki on rat mGluR1 and on rat mGluR5 was below 200 nM throughout.

Take `COc1ccc(-c2c(S(=O)(=O)c3cccc(C#N)c3)cnc3cc(F)ccc23)cc1` [Compound 92]: the results for the inhibitory constant (Ki) at rat mGluR1 and on rat mGluR5 were 200 to 500 nM and below 200 nM, respectively.

Values taken from US8063220B2, “Sulfonyl-quinoline derivatives” (Richter Gedeon Nyrt., priority 2007, dated 2011).
